Data: patent US10513518B2, “Inhibitors of the renal outer medullary potassium channel” (Merck Sharp & Dohme Corp., priority 2015, dated 2019)

Biological target: hROMK (hKir1.1) (Homo sapiens (Human), UniProt P48048)
Experiment: Thallium Flux Assay (ROMK channel functional thallium flux assay, FLIPR-Tetra)
Format: cell-based
Conditions: HEK293 cells stably expressing hROMK (hKir1.1); 30 min incubation with test compound
Experimental: The following Thallium Flux Assay was performed on each of the final product compounds in the Examples.
HEK293 cells stably expressing hROMK (hKir1.1) were grown at 37° C. in a 10% CO2 humidified incubator in complete growth media: Dulbecco's Modified Eagle Medium supplemented with non-essential amino acids, Penicillin/Streptomycin/Glutamine, G418 and FBS. At >80% confluency, aspirate the media from the flask and rinse with 10 mL Calcium/Magnesium-free PBS. 5 mL of 1× trypsin (prepared in Ca/Mg Free PBS) was added to a T-225 flask and the flask was returned to the 37° C./CO2 incubator for 2-3 minutes. The cell was dislodged by genitly banging the side of the flask by hand. The cells were titrated completely and then the cells were transferred to 25 mL complete media. The cells were centrifuged at 1,500 rpm for 6 min followed by resuspension in complete growth media and cell concentration was determined. 4E6 cells/T-225 flask attained >80% confluency in 4 days. Under ideal growth conditions and appropriate tissue culture practices, this cell line was stable for 40-45 passages.
FluxOR Kit Components (Invitrogen F10017)
• FluxOR™ Reagent (Component A) • FluxOR™ Assay Buffer (Component B)—10× Concentrate • PowerLoad™ Concentrate (Component C)—100× Concentrate • Probenecid (Component D)—Lyophilized sample is kept at −20° C. Water soluble, 100× after solubilization in 1 mL water. Store at 4° C. • FluxOR™ Chloride-free Buffer (Component E)—5× Concentrate • Potassium sulfate (K2SO4) Concentrate (Component F)—125 mM in water. Store at 4° C. • Thallium sulfate (TI2SO4) Concentrate (Component G)—50 mM in water. Store at 4° C. • DMSO (dimethyl sulfoxide, Component H)—1 mL (100%) Reagent Preparation: FluxOR Working Solutions • 1000× FluxOR™ Reagent: Reconstitute a vial of component A in 100 μl DMSO; Mix well; Store 10 μl aliquots at −20° C. • 1× FluxOR™ Assay Buffer: Dilute Component B 10-fold with water; Adjust pH to 7.4 with Hepes/NaOH; Filter and store at 4° C. • Probenecid/Assay Buffer: 100 mL of 1× FluxOR™ Assay Buffer; 1 mL of reconstituted component D; Store at 4° C. • Loading Buffer (per microplate): 10 μl 1000× FluxOR™ Reagent; 100 μl component C; 10 mL Probenecid/Assay Buffer • Compound Buffer (per microplate): 20 mL Probenecid/Assay Buffer; 0.3 mM ouabain (10 mM ouabain in water can be stored in amber bottle/aluminum foil at room temperature); Test compound • 1× FluxOR™ Chloride-Free Buffer: Prepare 1× working solution in water. Can be stored at room temperature • Stimulant Buffer (prepared at 5× final concentration in 1× FluxOR™ Chloride-Free Buffer): 7.5 mM Thallium sulfate and 0.75 mM Potassium sulfate (to give a final assay concentration of 3 mM Thallium/0.3 mM Potassium). Store at 4° C. when not in use. If kept sterile, this solution is good for months. Assay Protocol—
The ROMK channel functional thallium flux assay was performed in 384 wells, using the FLIPR-Tetra instrument. HEK-hKir1.1 cells were seeded in Poly-D-Lysine microplates and kept in a 37° C.-10% CO2 incubator overnight. On the day of the experiment, the growth media was replaced with the FluxOR™ reagent loading buffer and incubated, protected from light, at ambient temperature (23-25° C.) for 90 min. The loading buffer was replaced with assay buffer±test compound followed by 30 min incubation at ambient temperature, where the Thallium/Potassium stimulant was added to the microplate.
1. Seed HEK-hKir1.1 cells (50 μl at 20,000 cells/well) in 384-well PDL coated Microplates
2. Allow cells to adhere overnight in humidified 37° C./10% CO2 incubator
3. Completely remove cell growth media from microplate and replace with 25 μl loading buffer
4. Incubate Microplate at room temperature, protected form light, for 90 min
5. Remove loading buffer and replace with 25 μl 1× Assay Buffer±test compound.
6. Incubate microplate at room temperature, protected from light, for 30 min
7. At FLIPR-Tetra 384: Add stimulant (Thallium/Potassium) solution to microplate and monitor fluorescence. […]

Chain of hROMK (hKir1.1) (P48048 whole entry): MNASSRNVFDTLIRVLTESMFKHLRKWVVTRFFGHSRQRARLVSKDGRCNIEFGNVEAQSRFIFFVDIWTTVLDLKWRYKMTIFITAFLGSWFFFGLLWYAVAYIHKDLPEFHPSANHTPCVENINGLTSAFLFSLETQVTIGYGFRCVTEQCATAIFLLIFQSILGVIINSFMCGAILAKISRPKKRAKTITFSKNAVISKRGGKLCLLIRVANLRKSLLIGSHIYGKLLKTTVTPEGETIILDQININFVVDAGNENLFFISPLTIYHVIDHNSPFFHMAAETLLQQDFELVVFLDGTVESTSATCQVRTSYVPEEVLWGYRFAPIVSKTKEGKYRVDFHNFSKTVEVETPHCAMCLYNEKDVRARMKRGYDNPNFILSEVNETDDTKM

| Compound | IC50 [nM] |
| --- | --- |
| 8(1R,3r,5S)-8-(2-hydroxy-2-(2-methyl-6-(1H-tetrazol-1-yl)60icycle60-3-yl)ethyl)-1′-(2-methyl-3-oxocyclopent-1-en-1-yl)-8-azaspiro[bicyclo[3.2.1]octane-3,3′-pyrrolidin]-2′-one [Example 5] | 49.1 |
| Cc1nc(-n2cnnn2)ccc1C(O)CN1CCC2(CC1)CCN(C1=CS(=O)(=O)CC1)C2=O (single isomer, unassigned) [Example 1, 2-(1,1-dioxido-4,5-dihydrothiophen-3-yl)-8-(2-hydroxy-2-(2-methyl-6-(1H-tetrazol-1-yl)pyridin-3-yl)ethyl)-2,8-diazaspiro[4.5]decan-1-one] | 640 |
| CC1=C(N2CCC3(CCCN(CC(O)c4ccc(-n5cnnn5)nc4C)CC3)C2=O)CCC1=O (single isomer, unassigned) [Example 3A, 8-(2-hydroxy-2-(2-methyl-6-(1H-tetrazol-1-yl)pyridin-3-yl)ethyl)-2-(2-methyl-3-oxocyclopent-1-en-1-yl)-2,8-diazaspiro[4.6]undecan-1-one] | 323 |
| CC1=C(N2CCC3(CCCN(CC(O)c4ccc(-n5cnnn5)nc4C)CC3)C2=O)CCC1=O (single isomer, unassigned) [Example 3B, 8-(2-hydroxy-2-(2-methyl-6-(1H-tetrazol-1-yl)pyridin-3-yl)ethyl)-2-(2-methyl-3-oxocyclopent-1-en-1-yl)-2,8-diazaspiro[4.6]undecan-1-one] | 86.3 |
| CC1=C(N2CCC3(CC4CCC(C3)N4CC(O)c3ccc(-n4cnnn4)cn3)C2=O)CCC1=O [Example 6, (1R,3r,5S)-8-(2-(5-(1H-tetrazol-1-yl)pyridin-2-yl)-2-hydroxyethyl)-1′-(2-methyl-3-oxocyclopent-1-en-1-yl)-8-azaspiro[bicyclo[3.2.1]octane-3,3′-pyrrolidin]-2′-one] | 294 |
| Cc1c([C@@H](O)CN2CCC3(CC2)CC(=O)N(C2=CC(=O)CC2)C3)ccc2c1COC2=O [Example 12] | 521 |
| Cc1nc(-n2cnnn2)ccc1C(O)CN1CCC2(CC1)CC(=O)N(C1=CC(=O)CC1)C2 (centres unmarked) [Example 13] | 356 |
| Cc1nc(-n2cnnn2)ccc1C(O)CN1CCC2(CC1)CC(=O)N(C1=CS(=O)(=O)CC1)C2 (centres unmarked) [Example 17] | 598 |
| CC1=C(N2CC3(CCN(C[C@H](O)c4ccc5c(c4C)COC5=O)CC3)CC2=O)CCC1=O [Example 20] | 497 |
| CC1=C(N2CCC3(CCN(CC(O)c4ncc(-n5cnnn5)cc4C)CC3)C2=O)CCC1=O (centres unmarked) [Example 24] | 386 |
| CC1=C(N2CCC3(CCN(CC(O)c4ncc(-n5cnnn5)cc4C)CC3)C2=O)CCC1=O (centres unmarked) [Example 25] | 347 |
| CC1=C(N2CCC3(CCN(CC(O)c4cnc(-n5cnnn5)c(F)c4)CC3)C2=O)CCC1=O (centres unmarked) [Example 28] | 295 |
| CC1=C(N2CCC3(CCN(CC(O)c4cnc(-n5cnnn5)c(F)c4)CC3)C2=O)CCC1=O (centres unmarked) [Example 29] | 674 |
| O=C1C=C(N2CCC3(CCN(CC(O)c4cnc(-n5cnnn5)c(F)c4)CC3)C2=O)CC1 (centres unmarked) [Example 30] | 415 |
| O=C1C=C(N2CCC3(CCN(CC(O)c4cnc(-n5cnnn5)c(F)c4)CC3)C2=O)CC1 (centres unmarked) [Example 31] | 751 |
| CC1=C(N2CCCC3(CCN(CC(O)c4ccc(-n5cnnn5)nc4C)CC3)C2=O)CCC1=O (centres unmarked) [Example 32] | 647 |
| CC1=C(N2CCC3(CCN(CC(O)c4ccc(-n5cnnn5)cc4F)CC3)C2=O)CCC1=O (centres unmarked) [Example 36] | 531 |
| O=C1C=C(N2CCC3(CCN(CC(O)c4ccc(-n5cnnn5)cc4F)CC3)C2=O)CC1 (centres unmarked) [Example 37] | 461 |
| CC1=C(N2CCC3(CCCN(CC(O)c4ccc(-n5cnnn5)nn4)CC3)C2=O)CCC1=O (centres unmarked) [Example 43] | 568 |
| CC1=C(N2CCOC3(CCN(C[C@H](O)c4ccc5c(c4C)COC5=O)CC3)C2=O)CCC1=O [Example 45] | 892 |
| (1R,3R,5S)-8-((R)-2-hydroxy-2-(4-methyl-1-oxo-1,3-dihydroisobenzofuran-5-yl)ethyl)-1′-(2-methyl-3-oxocyclopent-1-en-1-yl)-8-azaspiro[bicyclo[3.2.1] octane-3,3′-pyrrolidin]-2′-one [Example 4] | 474 |

The remaining compounds from weak to strong by IC50, led by results:

| IC50 [nM] | Compound |
| --- | --- |
| 276 | Cc1c([C@@H](O)CN2CCC3(CC2)CCN(C2=CS(=O)(=O)CC2)C3=O)ccc2c1COC2=O [Example 16] |
| 196 | Cc1cc(-n2cnnn2)ccc1C(O)CN1CCC2(CC1)CCN(C1=CC(=O)CC1)C2=O (centres unmarked) [Example 35] |
| 187 | O=C1C=C(N2CCC3(CCN(C[C@H](O)c4ccc(-n5cnnn5)nc4)CC3)C2=O)CC1 [Example 23] |
| 122 | Cc1c([C@@H](O)CN2CCC3(CC2)CCN(C2=CC(=O)CC2)C3=O)ccc2c1COC2=O [Example 11] |
| 118 | CC1=C(N2CCC3(CCN(C[C@H](O)c4ccc(-n5cnnn5)nc4)CC3)C2=O)CCC1=O [Example 21] |
| 114 | O=C1N(C2=CS(=O)(=O)CC2)CCC12CCN(C[C@H](O)c1ccc(-n3cnnn3)nc1)CC2 [Example 22] |
| 100 | CC1=C(N2CCC3(CCN(CC(O)c4ccc(-n5cnnn5)nn4)CC3)C2=O)CCC1=O (centres unmarked) [Example 44] |
| 88.7 | Cc1nc(-n2cnnn2)ccc1C(O)CN1CCC2(CCCN(C3=CS(=O)(=O)CC3)C2=O)CC1 (centres unmarked) [Example 38] |
| 87.1 | CC1=C(N2CCC3(CCN(CC(O)c4ccc(-n5cnnn5)cc4C)CC3)C2=O)CCC1=O (centres unmarked) [Example 26] |
| 87 | Cc1nc(-n2cnnn2)ccc1C(O)CN1CCC2(CC1)CCN(C1=CC(=O)CC1)C2=O (centres unmarked) [Example 14] |
| 74.5 | CC1=C(N2CCC3(CCN(CC(O)c4ccc(-n5cnnn5)cc4C)CC3)C2=O)CCC1=O (centres unmarked) [Example 27] |
| 71.5 | CC1=C(N2CCC3(CCCN(C[C@H](O)c4ccc5c(c4C)COC5=O)CC3)C2=O)CCC1=O (some centres unmarked) [Example 40] |
| 62.2 | CC1=C(N2CCC3(CCN(C[C@H](O)c4ccc5c(c4C)COC5=O)CC3)C2=O)CCC1=O [Example 19] |
| 59.7 | O=C1C=C(N2CCCC3(CCN(CC(O)c4ccc(-n5cnnn5)cn4)CC3)C2=O)CC1 (centres unmarked) [Example 42] |
| 55.9 | Cc1nc(-n2cnnn2)ccc1C(O)CN1CCC2(CC1)CCN(C1=CS(=O)(=O)CC1)C2=O (centres unmarked) [Example 15] |
| 47.3 | CC1=C(N2CCC3(CCN(CC(O)c4ccc(-n5cnnn5)nc4C)CC3)C2=O)CCC1=O (centres unmarked) [Example 18] |
| 17.3 | Cc1nc(-n2cnnn2)ccc1C(O)CN1CCC2(CCCN(C3=CC(=O)CC3)C2=O)CC1 (centres unmarked) [Example 33] |
| 15.1 | CC1=C(N2CCC3(CCCN(C[C@H](O)c4ccc5c(c4C)COC5=O)CC3)C2=O)CCC1=O (some centres unmarked) [Example 39] |
| 10.9 | Cc1c([C@@H](O)CN2CCC3(CCCN(C4=CC(=O)CC4)C3=O)CC2)ccc2c1COC2=O [Example 34] |
| 10.7 | Cc1cc(-n2cnnn2)ccc1C(O)CN1CCC2(CCCN(C3=CC(=O)CC3)C2=O)CC1 (centres unmarked) [Example 41] |
